The text below walks through data of patent US6989383B1, “Method of treating cancer” (Sloan-Kettering Institute For Cancer Research, priority 1998, dated 2006).

For data set [1] the following is noted: TFA salt.
Data set [2] relates to MCF-7 cells. Nature of the data set: Mitotic index by bis-benzimide staining and fluorescence microscopy. Format: cell-based, human. As to conditions: paclitaxel/Compound A treatments, manual counting of 1000 cells per group. How it is done:
FIG. 5: Specific Effect of a Farnesyl-protein Transferase Inhibitor in combination with pactitaxel on the cell cycle of MCF-7 Cells: The cells which contained the doubled DNA content from the assay described above for FIGS. 4 and 4A-4L were analyzed to determine which particular cell cycle phase was affected by the addition of Compound A to the paclitaxel treatment. Thus, aliquots of the cell populations for the various paclitaxel/Compound A treatments were. fixed in 3% paraformaldehyde for 10 minutes, washed in PBS and stained in 24 μg/ml bis-benzimide in PBS. Mitotic cells were distinguished from interphase cells under fluorescence microscopy by characteristic chromatin condensation and mitotic indices were obtained by manual counting of 1000 cells in each experimental treatment group.

Data set [3] deals with MCF-7 cells. Kind of data set: In vitro cell cycle assay (DNA content by flow cytometry). Format: cell-based, human. The settings on record: 24 hour treatment with various concentrations of paclitaxel in presence or absence of 1 μM Compound A. Here is the method:
FIGS. 4 and 4A-4L: Effect of a Farnesyl-protein Transferase Inhibitor in combination with paclitaxel on the cell cycle of MCF-7 Cells: MCF-7 cells were preincubated for one day, followed by a 24 hour treatment with various concentrations of paclitaxel in the presence or absence of 1 μM Compound A. The DNA contents of the cells were then assessed according to the protocol described in “In vitro cell cycle assay.” The cell population having various DNA quantities was then determined and analyzed graphically. […] FIGS. 4A-4L show the individual histograms in greater detail. FIGS. 4A-4F show the histograms of the treatment in the absence of Compound A and with increasing concentrations of paclitaxel (the left column of FIG. 4). FIGS. 4G-4L show the histograms of the treatment in the presence of 1 μM of Compound A and with increasing concentrations of paclitaxel (the right column of FIG. 4).
Cancer cells (MCF-7, MDA468 or DU-145) are seeded in a 10 cm dish at 1,000,000 cells per dish. After one day in growth media, the cells are exposed to various concentrations of a antineoplastic agent along with vehicle (PBS) or 1 μM FTI in the vehicle. After 24 hours of exposure to the combination or antineoplastic agent, the cells are trypsinized and stained with ethidium bromide. The stained nucleii are analyzed by flow cytometry for evaluation of the DNA content.
In general terms: Flow cytometry measures light scatter and fluorescence of single cells or particles in a stream.

Take `CC[C@H](C)[C@@H](CO[C@@H](Cc1ccccc1)C(=O)NC1CCOC1=O)NC[C@@H](N)CS` (stereo partly drawn) [Compound 5-1, 2(S)-[2(S)-[2(R)-Amino-3-mercapto]-propylamino-3(S)-methyl]pentyloxy-3-phenylpropionyl-homoserine lactone]: in data set [1], the “stability in solution exposed to air” value was “prone to disulphide formation if left in solution and exposed to air”. In the case of `CCC(C)[C@@H](CO[C@@H](Cc1ccccc1)C(=O)N[C@@H](CCS(C)(=O)=O)C(=O)OC(C)C)NC[C@@H](N)CS` (stereo partly drawn) [Compound A, 2(S)-[2(S)-[2(R)-Amino-3-mercapto]-propylamino-3(S)-methyl)-pentyloxy-3-phenylpropionyl-methionine sulfone isopropyl ester], in data set [2], the “cell cycle phase affected by addition of Compound A to paclitaxel treatment (mitotic indices)” value is reported as “enhancement in blockage at the G2/M phase of the cell cycle is largely due to an effect on the M-phase”. Further, the “effect on paclitaxel-induced G2/M phase arrest” value in data set [3] was “increases the molar potency with which paclitaxel causes G2/M phase arrest”.
